Results reported in patent publication US20210395239A1 (Hoffmann-La Roche Inc., priority 2018, published 2021).

Molecular target: T1, human TLR7 (Homo sapiens, UniProt Q9NYK1)
T1 construct: host or cells: HEK293 (HEK-Blue hTLR7)
T1 sequence (Q9NYK1 27-1049): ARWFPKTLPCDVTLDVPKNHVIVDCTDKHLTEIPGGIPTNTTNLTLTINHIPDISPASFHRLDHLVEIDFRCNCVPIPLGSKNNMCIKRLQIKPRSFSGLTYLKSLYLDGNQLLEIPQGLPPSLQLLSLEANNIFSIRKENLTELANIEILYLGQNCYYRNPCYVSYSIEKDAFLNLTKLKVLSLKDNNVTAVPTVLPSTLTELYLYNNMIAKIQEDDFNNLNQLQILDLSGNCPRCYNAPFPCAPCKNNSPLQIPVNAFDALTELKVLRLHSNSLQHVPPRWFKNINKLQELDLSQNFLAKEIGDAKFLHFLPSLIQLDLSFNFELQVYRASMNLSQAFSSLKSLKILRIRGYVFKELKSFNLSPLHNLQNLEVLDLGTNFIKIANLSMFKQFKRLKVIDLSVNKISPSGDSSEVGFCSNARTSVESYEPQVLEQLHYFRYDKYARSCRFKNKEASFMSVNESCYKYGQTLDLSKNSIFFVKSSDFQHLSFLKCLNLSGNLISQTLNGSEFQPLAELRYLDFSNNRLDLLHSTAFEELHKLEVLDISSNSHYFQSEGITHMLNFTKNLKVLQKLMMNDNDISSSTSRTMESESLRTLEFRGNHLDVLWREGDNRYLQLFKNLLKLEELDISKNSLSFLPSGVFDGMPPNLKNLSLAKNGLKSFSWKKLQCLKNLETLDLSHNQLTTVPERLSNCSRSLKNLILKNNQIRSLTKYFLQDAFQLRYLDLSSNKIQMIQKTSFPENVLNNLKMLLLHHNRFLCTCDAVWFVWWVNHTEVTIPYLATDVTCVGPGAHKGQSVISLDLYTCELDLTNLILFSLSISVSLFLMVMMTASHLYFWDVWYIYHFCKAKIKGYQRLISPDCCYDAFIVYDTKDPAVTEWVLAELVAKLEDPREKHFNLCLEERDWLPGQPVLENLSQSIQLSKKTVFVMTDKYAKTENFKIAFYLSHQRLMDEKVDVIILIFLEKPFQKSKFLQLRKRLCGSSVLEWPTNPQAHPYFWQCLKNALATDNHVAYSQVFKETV
Assay: HEK293-Blue-hTLR-7 cells assay (SEAP reporter, R848 stimulation)
Format: cell-based
Settings: HEK293-Blue-hTLR7 cells, R848, 20 hrs; read-out: HEK/hTLR7 IC50
Procedure, shortened: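 HEK293-Blue-hTLR7 cells (NF-κB/AP-1-driven SEAP reporter) were stimulated with R848 alongside serially diluted compound at 1% final DMSO for 20 h at 37 °C. Supernatant SEAP was then developed with QUANTI-Blue for 2 h at 37 °C and absorbance read at 620–655 nm; antagonism is measured as reduced reporter signal.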

Row | SMILES | IC50
1 | COC1CNC[C@H]1Nc1cccc(N2CCN(C[C@H]3CN(c4ccc(C#N)c5ncccc45)C[C@@H](C)O3)CC2)n1 (stereo in doubt) [Example 39, 5-[(2S,6R)-2-[[4-[6-[[(3R,4R)-4-methoxypyrrolidin-3-yl]amino]-2-pyridyl]piperazin-1-yl]methyl]-6-methyl-morpholin-4-yl]quinoline-8-carbonitrile] | 51 nM
2 | COC1CN(c2ccc(C3CN(C[C@H]4CN(c5cc(=O)n(C)c6ncccc56)C[C@@H](C)O4)C3)cc2)C[C@H]1N (stereo in doubt) [Example 172, 4-[(2S,6R)-2-[[3-[4-[(3R,4R)-3-amino-4-methoxy-pyrrolidin-1-yl]phenyl]azetidin-1-yl]methyl]-6-methyl-morpholin-4-yl]-1-methyl-1,8-naphthyridin-2-one] | 41 nM
3 | C[C@@H]1CN(c2cc(=O)n(C)c3ncccc23)C[C@H](CN2CC(c3ccc(N4CC(F)[C@H](N)C4)cc3)C2)O1 (stereo in doubt) [Example 174, 4-[(2S,6R)-2-[[3-[4-[(3R,4R)-3-amino-4-fluoro-pyrrolidin-1-yl]phenyl]azetidin-1-yl]methyl]-6-methyl-morpholin-4-yl]-1-methyl-1,8-naphthyridin-2-one] | 47 nM
4 | C[C@@H]1CN(c2ccc(C#N)n3ncc(F)c23)C[C@H](CN2CCN(c3ccc(C4CNCCO4)cc3F)CC2)O1 (stereo in doubt) [Example 183, 3-fluoro-4-[(2S,6R)-2-[[4-[2-fluoro-4-[(2S)-morpholin-2-yl]phenyl]piperazin-1-yl]methyl]-6-methyl-morpholin-4-yl]pyrazolo[1,5-a]pyridine-7-carbonitrile] | 28 nM
5 | C[C@@H]1CN(c2ccc(C#N)c3ncccc23)C[C@H](CN2CCN(c3cncc(N4CCNCC4)c3)CC2)O1 [Example 7, 5-[(2R,6S)-2-methyl-6-[[4-(5-piperazin-1-yl-3-pyridyl)piperazin-1-yl]methyl]morpholin-4-yl]quinoline-8-carbonitrile] | 34 nM
6 | C[C@@H]1CN(c2ccc(C#N)c3ncccc23)C[C@H](CN2CCN(c3ccc(N4CCNCC4)cn3)CC2)O1 [Example 8, 5-[(2R,6S)-2-methyl-6-[[4-(5-piperazin-1-yl-2-pyridyl)piperazin-1-yl]methyl]morpholin-4-yl]quinoline-8-carbonitrile] | 50 nM
7 | C[C@@H]1CN(c2ccc(C#N)c3ncccc23)C[C@H](CN2CCN(c3cc(N4CCNCC4)ccn3)CC2)O1 [Example 9, 5-[(2R,6S)-2-methyl-6-[[4-(4-piperazin-1-yl-2-pyridyl)piperazin-1-yl]methyl]morpholin-4-yl]quinoline-8-carbonitrile] | 19 nM
8 | C[C@@H]1CN(c2ccc(C#N)c3ncccc23)C[C@H](CN2CCN(c3cccc(N4CCNCC4)n3)CC2)O1 [Example 10, 5-[(2R,6S)-2-methyl-6-[[4-(6-piperazin-1-yl-2-pyridyl)piperazin-1-yl]methyl]morpholin-4-yl]quinoline-8-carbonitrile] | 33 nM
9 | C[C@@H]1CN(c2ccc(C#N)c3ncccc23)C[C@H](CN2CCC(C#N)(c3ccc(N4CCNCC4)cc3)CC2)O1 [Example 11, 5-[(2S,6R)-2-[[4-cyano-4-(4-piperazin-1-ylphenyl)-1-piperidyl]methyl]-6-methyl-morpholin-4-yl]quinoline-8-carbonitrile] | 23 nM
10 | C[C@@H]1CN(c2ccc(C#N)c3ncccc23)C[C@H](CN2CCN(c3ncc(N4CCNCC4)cn3)CC2)O1 [Example 17, 5-[(2R,6S)-2-methyl-6-[[4-(5-piperazin-1-ylpyrimidin-2-yl)piperazin-1-yl]methyl]morpholin-4-yl]quinoline-8-carbonitrile] | 31 nM
11 | C[C@@H]1CN(c2ccc(C#N)c3ncccc23)C[C@H](CN2CCN(c3ccc([C@@H]4CNCCO4)cc3)CC2)O1 [Example 19, 5-[(2R,6S)-2-methyl-6-[[4-[4-[(2R)-morpholin-2-yl]phenyl]piperazin-1-yl]methyl]morpholin-4-yl]quinoline-8-carbonitrile] | 25 nM
12 | C[C@@H]1CN(c2ccc(C#N)c3ncccc23)C[C@H](CN2CCN(c3ccc([C@H]4CNCCO4)cc3)CC2)O1 [Example 20, 5-[(2R,6S)-2-methyl-6-[[4-[4-[(2S)-morpholin-2-yl]phenyl]piperazin-1-yl]methyl]morpholin-4-yl]quinoline-8-carbonitrile] | 20 nM

Compounds with a lower IC50, results first:

Row | IC50 | SMILES
13 | 11 nM | CO[C@H]1CN(c2nc(C)cc(N3CCN(C[C@H]4CN(c5ccc(C#N)c6ncccc56)C[C@@H](C)O4)CC3)n2)CC1N (relative stereo) [Example 59, 5-[(2R,6S)-2-methyl-6-[[4-[6-methyl-2-[trans-3-amino-4-methoxy-pyrrolidin-1-yl]pyrimidin-4-yl]piperazin-1-yl]methyl]morpholin-4-yl]quinoline-8-carbonitrile]
14 | 15 nM | COC1CN(c2nccc(N3CCN(C[C@H]4CN(c5ccc(C#N)c6ncccc56)C[C@@H](C)O4)CC3)n2)C[C@H]1N (stereo in doubt) [Example 52, 5-[(2S,6R)-2-[[4-[2-[(3R,4R)-3-amino-4-methoxy-pyrrolidin-1-yl]pyrimidin-4-yl]piperazin-1-yl]methyl]-6-methyl-morpholin-4-yl]quinoline-8-carbonitrile]
15 | 8 nM | CO[C@H]1CN(c2nccc(N3CCN(C[C@H]4CN(c5ccc(C#N)c6ncccc56)C[C@@H](C)O4)CC3)n2)CC1N (stereo in doubt) [Example 53, 5-[(2S,6R)-2-[[4-[2-[(3S,4S)-3-amino-4-methoxy-pyrrolidin-1-yl]pyrimidin-4-yl]piperazin-1-yl]methyl]-6-methyl-morpholin-4-yl]quinoline-8-carbonitrile]
16 | 9 nM | Cc1cc(N2CCN(C[C@H]3CN(c4ccc(C#N)c5ncccc45)C[C@@H](C)O3)CC2)nc(N2CC(N)C(F)C2)n1 (stereo in doubt) [Example 54, 5-[(2S,6R)-2-[[4-[2-[(3S,4R)-3-amino-4-fluoro-pyrrolidin-1-yl]-6-methyl-pyrimidin-4-yl]piperazin-1-yl]methyl]-6-methyl-morpholin-4-yl]quinoline-8-carbonitrile]
17 | 12 nM | C[C@@H]1CN(c2ccc(C#N)c3ncccc23)C[C@H](CN2CCN(c3cnc(N4CCNCC4)nc3)CC2)O1 [Example 12, 5-[(2R,6S)-2-methyl-6-[[4-(2-piperazin-1-ylpyrimidin-5-yl)piperazin-1-yl]methyl]morpholin-4-yl]quinoline-8-carbonitrile]
18 | 18 nM | C[C@@H]1CN(c2ccc(C#N)c3ncccc23)C[C@H](CN2CCN(c3ccc(N4CCNCC4)nc3)CC2)O1 [Example 13, 5-[(2R,6S)-2-methyl-6-[[4-(6-piperazin-1-yl-3-pyridyl)piperazin-1-yl]methyl]morpholin-4-yl]quinoline-8-carbonitrile]
19 | 6 nM | C[C@@H]1CN(c2ccc(C#N)c3ncccc23)C[C@H](CN2CCN(c3nccc(N4CCNCC4)n3)CC2)O1 [Example 14, 5-[(2R,6S)-2-methyl-6-[[4-(4-piperazin-1-ylpyrimidin-2-yl)piperazin-1-yl]methyl]morpholin-4-yl]quinoline-8-carbonitrile]
20 | 7 nM | C[C@@H]1CN(c2ccc(C#N)c3ncccc23)C[C@H](CN2CCN(c3ccnc(N4CCNCC4)n3)CC2)O1 [Example 15, 5-[(2R,6S)-2-methyl-6-[[4-(2-piperazin-1-ylpyrimidin-4-yl)piperazin-1-yl]methyl]morpholin-4-yl]quinoline-8-carbonitrile]
21 | 11 nM | C[C@@H]1CN(c2ccc(C#N)c3ncccc23)C[C@H](CN2CCN(c3cc(N4CCNCC4)ncn3)CC2)O1 [Example 18, 5-[(2R,6S)-2-methyl-6-[[4-(6-piperazin-1-ylpyrimidin-4-yl)piperazin-1-yl]methyl]morpholin-4-yl]quinoline-8-carbonitrile]
22 | 16 nM | C[C@@H]1CN(c2ccc(C#N)c3ncccc23)C[C@H](CN2CCN(c3cc(N4CCN(C)CC4)ncn3)CC2)O1 [Example 21, 5-[(2R,6S)-2-methyl-6-[[4-[6-(4-methylpiperazin-1-yl)pyrimidin-4-yl]piperazin-1-yl]methyl]morpholin-4-yl]quinoline-8-carbonitrile]
23 | 10 nM | C[C@@H]1CN(c2ccc(C#N)c3ncccc23)C[C@H](CN2CCN(c3ccnc(N4CCN(C)CC4)n3)CC2)O1 [Example 22, 5-((2R,6S)-2-methyl-6-((4-(2-(4-methylpiperazin-1-yl)pyrimidin-4-yl)piperazin-1-yl)methyl)morpholino)quinoline-8-carbonitrile]
